Here are results for 5 molecules from PMC4754833, “Rilpivirine analogs potently inhibit drug-resistant HIV-1 mutants” (Retrovirology, 2016).

Like-named read-outs stand apart in the source and are kept apart here. Where only a bound is given, the exact number is not on record here.

Experiment [1] relates to HIV-1 RT mutant E138K/M184I. The experiment is described as follows: single round infection assay, E138K/M184I. It counts as cell-based. The note with it: for fold-change of IC50 of the mutant relative to WT: E138K/M184I vs WT. Here is the method:
(§1) The human osteosarcoma cell line, HOS, was obtained from Dr. Richard Schwartz (Michigan State University, East Lansing, MI) and grown in Dulbecco’s modified Eagle’s medium (Invitrogen, Carlsbad, CA) supplemented with 5 % (v/v) fetal bovine serum, 5 % newborn calf serum, and penicillin (50 units/ml) plus streptomycin (50 µg/ml; Quality Biological, Gaithersburg, MD). Virion production and single-round infectivity assays were used to determine antiviral activity (IC50 values) of the compounds as previously described.
(§2) pNLNgoMIVR-ΔEnv.LUC has been described previously. The RT open reading frame was removed from pNLNgoMIVR-ΔEnv.LUC (digestion with SpeI and SalI) and inserted between the SpeI and SalI sites of pBluescript II KS+. Using that construct as the wild-type template, we prepared the following HIV-1 RT mutants using the QuikChange II XL (Stratagene, La Jolla, CA) site-directed mutagenesis protocol kit: L100I, K103N, Y181C, Y188L, H221Y, K103N/Y181C, G190A, G190S, M230L, P236L, L100I/K103N, K103N/P225H, V106A/G190A/F227L, V106A, L234I, V106A/F227L, V106A/L234I, V106A/F227L/L234I, E40K, D67E, K101E, V111A, E138K, M184I, M184V, K101E/M184I, K101E/M184V, E138K/M184I, E138K/M184V, K101P, Y181I, and K101P/V179I. The following sense oligonucleotides were used with matching cognate antisense oligonucleotides (not shown) (Integrated DNA Technologies, Coralville, IA) in the mutagenesis: L100I, 5′-[…]-3′; L100I 2-103, 5′-[…]-3′; K103N, 5′-[…]-3′; Y181C, 5′-[…]-3′; Y188L, 5′-[…]-3′; H221Y, 5′-[…]-3′; G190A, 5′-[…]-3′; G190S, 5′-[…]-3′; P225H, 5′-[…]-3′; F227, 5′-[…]-3′; M230L, 5′-[…]-3′; P236L, 5′-[…]-3′; V106A, 5′-[…]-3′; L234I, 5′-[…]-3′; E40K, 5′-[…]-3′; D67E, 5′-[…]-3′; K101E, 5′-[…]-3′; V111A, 5′-[…]-3′; E138K, 5′-[…]-3′; M184I, 5′-[…]-3′; M184V, 5′-[…]-3′; K101P, 5′-[…]-3′; Y181I, 5′-[…]-3′; K101P/V179I, 5′-[…]-3′. The double mutants K103N/Y181C, K103N/P225H, and L100I/K103N were made using the previously generated K103N mutant and the appropriate oligonucleotides to add the second mutation, Y181C, P225, and L100I respectively. The double mutants V106A/F227L and V106A/L234I were prepared using the previously generated V106A mutant and the appropriate oligonucleotides to add the second mutation, F227L and L234I, respectively. The double mutants K101E/M184I and K101E/M184V were constructed using the previously generated K101E mutant and the appropriate oligonucleotides to add the second mutation, M184I and M184V, respectively. The double mutants E138K/M184I and E138K/M184V were constructed using the previously generated E138K mutant and the appropriate oligonucleotides for the second mutation, M184I and M184V, respectively. The triple mutant V106A/F227L/L234I was made using the previously generated V106A/F227L double mutant and the appropriate oligonucleotides for the third mutation, L234I. The triple mutant V106A/G190A/F227L was constructed in a series of steps using the previously generated V106A mutant and the appropriate oligonucleotides for the second mutation, G190A, to generate the double mutant V106A/G190A, and then the triple mutant was made using double mutant V106A/G190A and oligonucleotides for the third mutation, F227L. The DNA sequence of each construct was verified by DNA sequence determination. The sequences encoding the mutant RTs were then subcloned into pNLNgoMIVR-ΔEnv.LUC (between the KpnI and SalI sites) to produce the mutant HIV-1 constructs. These DNA sequences were also checked independently by DNA sequence determination.
(§3) 10.1186/s12977-016-0244-2 The IC50 values (nM) of RPV and the RPV analogs were determined against the NNRTI resistant mutants were measured by using a single round infection assay, n = 4. The concentrations (nM) are measured by reductions in luciferase reporter activity followed by the standard deviations. […]

For experiment [2], the system named is HIV-1 RT mutant K101P. The experiment is described as follows: single round infection assay, K101P. Type of experiment: cell-based. The conditions noted are these: for IC50: Human immunodeficiency virus 1; for fold-change of IC50 of the mutant relative to WT: K101P vs WT. Here is the method:
as §1, §2, §3

The test system of experiment [3] is WT HIV-1. The experiment is described as follows: single round infection luciferase assay, WT HIV-1. The conditions noted are these: Human immunodeficiency virus 1. It counts as cell-based. As for the experimental part: as §1, §2, §3
The subject of experiment [4] is HIV-1 RT mutant Y181I. The experiment is described as follows: single round infection assay, Y181I. Type of experiment: cell-based. The note with it: for IC50: Human immunodeficiency virus 1; for fold-change of IC50 of the mutant relative to WT: Y181I vs WT. As for the experimental part:
as §1, §2, §3

The test system of experiment [5] is HIV-1 RT mutant K103N. The arrangement: method as in PMID 23217210. The note with it: previous study; cited from earlier work.
The subject of experiment [6] is HIV-1 RT mutant V106A/F227L. The experiment is described as follows: single round infection assay, V106A/F227L. It counts as cell-based. The note with it: for fold-change of IC50 of the mutant relative to WT: V106A/F227L vs WT; for IC50: ± SD, n=4. As for the experimental part:
as §1, §2, §3

For experiment [7], the system named is HIV-1 RT mutant G190A. The experiment is described as follows: single round infection assay, G190A. Type of experiment: cell-based. The note with it: for IC50: Human immunodeficiency virus 1. Here is the method: as §1, §2, §3
The subject of experiment [8] is HIV-1 RT mutant K101E/M184I. The experiment is described as follows: single round infection assay, K101E/M184I. Type of experiment: cell-based. The conditions noted are these: for fold-change of IC50 of the mutant relative to WT: K101E/M184I vs WT. As for the experimental part: as §1, §2, §3
The test system of experiment [9] is HIV-1 RT mutant E138K. The experiment is described as follows: single round infection assay, E138K. The conditions noted are these: for fold-change of IC50 of the mutant relative to WT: E138K vs WT; for IC50: ± SD, n=4. It counts as cell-based. As for the experimental part:
as §1, §2, §3

Experiment [10] concerns HIV-1 RT mutant M230L. The experiment is described as follows: single round infection assay, M230L. The note with it: for fold-change of IC50 of the mutant relative to WT: M230L vs WT; for IC50: ± SD, n=4, limit of detection 100 nM. Type of experiment: cell-based. As for the experimental part:
as §1, §2, §3

The test system of experiment [11] is WT HIV-1. The conditions noted are these: previous study; cited from earlier work.
For experiment [12], the system named is HIV-1 RT mutant E138K/M184V. The experiment is described as follows: single round infection assay, E138K/M184V. Type of experiment: cell-based. The conditions noted are these: for fold-change of IC50 of the mutant relative to WT: E138K/M184V vs WT; for IC50: ± SD, n=4. Here is the method: as §1, §2, §3
For experiment [13], the system named is HIV-1 RT mutant Y181C. Also noted: method as in PMID 23217210. The note with it: previous study; cited from earlier work.
Experiment [14] relates to HIV-1 RT mutant G190S. The experiment is described as follows: single round infection assay, G190S. The conditions noted are these: Human immunodeficiency virus 1. Type of experiment: cell-based. Here is the method: as §1, §2, §3
[15] abbreviates: Human immunodeficiency virus 1, E138K/M184V.
The mark [16] stands for this setting: Human immunodeficiency virus 1, E138K.
Setting [17] is: Human immunodeficiency virus 1, M230L.

For `Cc1cc(/C=C/C#N)cc(C)c1Nc1ccnc(Nc2ccc(C#N)cc2)n1` [RPV, rilpivirine], the “fold-change of IC50 of the mutant relative to WT” value in [1] is on record as 5; in [2], 26; in [4] it was 37; in experiment [6], 3; in experiment [7] (G190A vs WT), below 2; in experiment [8], 3. For the same molecule, the “fold-change of IC50 of the mutant relative to WT” value is reported as 4 in [9], 7 in experiment [10] and 5 in [12]. In addition, the IC50 (in general, the concentration that inhibits the measured activity by half) in [2] was 6.2 nM; in experiment [3] it was 0.24 ± 0.1 nM; in [4], 8.8 nM; in experiment [5], below 7 nM; in [7], 0.4 ± 0.08 nM; in experiment [11], below 7 nM. In addition, the IC50 in experiment [12] (E138K/M184V) was 1.3 ± 0.4 nM; in [12] (setting [15]) it was below 2.5 nM; in [13], below 7 nM; in experiment [14], 0.11 ± 0.01 nM.
Consider `Cc1cc(/C=C/C#N)cc(C)c1Nc1nc(Nc2ccc(C#N)cc2)ncc1[N+](=O)[O-]` [compound 6], for which the “fold-change of IC50 of the mutant relative to WT” value in experiment [1] is listed as 2; in [2] it was 5; in [4], 110; in experiment [6] it was 4; in [8], below 2; in [9], 3. Moreover, the “fold-change of IC50 of the mutant relative to WT” value came to 6 in experiment [10] and 3 in [12]. Also, the half-inhibitory concentration (IC50) in [2] was 2.5 nM; in experiment [3], 0.5 ± 0.17 nM; in experiment [4] it was 55.3 nM; in experiment [5], below 7 nM; in experiment [7], 0.2 ± 0.09 nM; in [9] (E138K), 1.4 ± 0.3 nM. Moreover, the IC50 in [9] (setting [16]) was below 2.5 nM; in experiment [11], below 7 nM; in [12] (E138K/M184V) it was 1.63 ± 0.08 nM; in experiment [12] (setting [15]) it was below 2.5 nM; in [13], below 7 nM; in experiment [14] it was 0.2 ± 0.09 nM.
Turning to `Cc1cc(/C=C/C#N)cc(C)c1Nc1nc(Nc2ccc(C(F)(F)F)cc2)c2nc[nH]c2n1` [compound 15], the “fold-change of IC50 of the mutant relative to WT” value in [1] was below 2; in experiment [4] it was 30; in [8] it was below 2; in experiment [9] it was 4; in [10], 10; in experiment [12], below 2. Also, the IC50 in experiment [2] is above 100 nM; in [3] it was 1.7 ± 0.3 nM; in [4], 50.2 nM; in experiment [5], below 7 nM; in experiment [7], 0.77 ± 0.19 nM; in experiment [9] (E138K) it was 6.3 ± 1.3 nM. For the same molecule, the IC50 in experiment [9] (setting [16]) was below 6 nM; in experiment [10] (setting [17]) it was 16.8 nM; in [11], below 7 nM; in experiment [12] (E138K/M184V), 3.1 ± 0.4 nM; in [12] (setting [15]), below 6 nM; in experiment [13] it was below 7 nM. The molecule also had an IC50 in experiment [14] of 0.35 ± 0.05 nM.
Take `Cc1cc(/C=C/C#N)cc(C)c1Nc1ncc2ncn(-c3ccc(C#N)cc3)c2n1` [compound 26]: the “fold-change of IC50 of the mutant relative to WT” value in experiment [1] is reported as 3; in experiment [6], 8; in experiment [9], 4; in [12] it was below 2. In addition, the IC50 in experiment [1] (Human immunodeficiency virus 1, E138K/M184I, ± SD, n=4) is 24.5 ± 4.8 nM; in experiment [2] it was above 100 nM; in [3] it was 7.7 nM; in experiment [4] it was above 100 nM; in [7], 2.2 nM; in [8] (Human immunodeficiency virus 1, K101E/M184I, ± SD, n=4), 7.3 ± 1.8 nM. Moreover, the IC50 in [9] (setting [16]) is 28.8 ± 1.1 nM; in [10] (setting [17]), above 100 nM; in [12] (setting [15]) it was 13.2 ± 2.3 nM; in experiment [14] it was 2.1 nM.
Take `Cc1cc(/C=C/C#N)cc(C)c1-n1cnc2cnc(Nc3ccc(C#N)cc3)nc21` [compound 27]: the “fold-change of IC50 of the mutant relative to WT” value in experiment [1] is on record as below 2; in experiment [2] it was 8; in experiment [4], 40; in experiment [6], 5; in [9] it was 2; in experiment [10] it was 7. Besides, in [12], the “fold-change of IC50 of the mutant relative to WT” value stood at 3. The IC50 in experiment [2] was 4.9 nM; in experiment [3], 0.58 ± 0.24 nM; in [4] it was 23.1 nM; in [5], below 7 nM; in experiment [6] (Human immunodeficiency virus 1, V106A/F227L (selected by DOR)) it was below 5 nM; in experiment [6] (V106A/F227L (selected by DOR)), 2.9 ± 0.3 nM. The IC50 was 0.2 ± 0.1 nM in experiment [7]; 1.3 ± 0.14 nM in [9] (E138K); below 2.5 nM in experiment [9] (setting [16]); below 6.1 nM in experiment [10] (setting [17]); 4.2 ± 0.5 nM in experiment [10] (M230L); below 7 nM in [11]. Also, the IC50 in experiment [12] (E138K/M184V) is 1.8 ± 0.8 nM; in experiment [12] (setting [15]), below 2.5 nM; in experiment [13] it was below 7 nM; in experiment [14], 0.1 ± 0.01 nM.
